Laboratory results: patent US11192863B2, “Antiviral compounds and methods” (Biotron Limited, priority 2003, dated 2021)
Like-named read-outs stand apart in the source and are kept apart here.

Assays:
[1] = biological target: SARS-CoV E protein (Severe acute respiratory syndrome coronavirus, UniProt P59637); type: cell-based
[2] = biological target: Vpu protein (Human immunodeficiency virus type 1 group M subtype B, UniProt P05919); conditions: for Vpu Inhibition (score/# of times tested): halo of growth score between zero and six, XL1-blue E. coli with pPL-Vpu, no adenine, 37° C.
[3] = test system: human coronavirus OC43; assay: microbe, parasite or virus in culture; type: cell-based; conditions: Betacoronavirus 1, OC43, MRC5, 120 h, MRC-5 cells, 5 days post infection
[4] = test system: porcine respiratory coronavirus (PRCV) strain AR310; assay: PRCV plaque assay in ST cells; type: cell-based; conditions: Alphacoronavirus 1; PRCV plaques in ST cells
[5] = test system: HIV; type: cell-based; conditions: for At least 1x log reduction seen in p24 assay?: Table 19b, yes/no
[6] = test system: MHV (strain MHV-A59); conditions: L929 cells
[7] = test system: SARS-CoV (Hong Kong strain); type: cell-based, SARS coronavirus; conditions: for Titre (% control): 48 hours; for Average TCID50 (×10^6): 48 hours post infection
[8] = test system: bovine coronavirus (BCV); assay: BCV plaque assay in MDBK cells; type: cell-based; conditions: Betacoronavirus 1; BCV plaques in MDBK cells
[9] = biological target: SARS E protein ion channel (Severe acute respiratory syndrome coronavirus, UniProt P59637); type: biochemical, SARS-CoV
[10] = biological target: 229E-CoV E-protein (Human coronavirus 229E, UniProt P19741); assay: Bacterial bio-assay for 229E-CoV E-protein; conditions: halo of growth score; E. coli expressing E protein at 37° C.
[11] = test system: MHV (strain MHV-A59); assay: microbe, parasite or virus in culture; conditions: Murine coronavirus, L929, read-out: Percent reduction in Plaque number/# experiments
[12] = test system: EAV (strain Bucyrus); assay: EAV plaque reduction assay in BHK-21 cells; type: cell-based; conditions: Equine arteritis virus; EAV plaques in BHK-21 cells
Protocol: To determine the antiviral activity of compounds against EAV replication (strain Bucyrus; ATCC VR-796), an assay measuring reduction in the number of plaques formed in monolayers of EAV infected BHK-21 cells (ATCC CCL-10) was developed: […] Plates were subsequently incubated at 37° C. […] Plaques were counted in all wells and the percentage reduction in plaque number compared to solvent control was calculated. Measurements were performed in duplicate to quadruplicate wells.

[13] = Table 19a, rank among 12 compounds, 1 = highest score

COc1ccc2cc(C(=O)NC(=N)N)ccc2c1 [6-methoxy-2-naphthoylguanidine]
SARS E protein Inhibition (score/# of times tested) [1]: 3.13/3 score
Bacterial assay rank order [2, 13]: 5.5
Bacterial assay rank order ([2]; Table 19b): 5.5
Vpu Bacterial score ([2]; Table 19b): 2.9
Vpu Inhibition (score/# of times tested) [2]: 2.9/4 score
inhibition at 2.5 µM [3]: 47%
EC50 [4]: 0.04 µM
At least 1x log reduction seen in p24 assay? [5]: yes
Percent reduction in Plaque number/# experiments ([6]; 1 uM): 34/3%
Percent reduction in Plaque number/# experiments ([6]; 10 uM): 56/3%
Percent reduction in Plaque number/# experiments ([6]; 20 uM): 88/3%
Titre (% control) ([7]; Compound Concentration 2 uM): 118 % control
Average TCID50 (×10^6) ([7]; Compound Concentration 2 uM): 6.35 ×10^6
Titre (% control) ([7]; Compound Concentration 10 uM): 111 % control
Average TCID50 (×10^6) ([7]; Compound Concentration 10 uM): 5.95 ×10^6
EC50 [8]: 9 µM
% Reduction of average current by 100 μM [9]: 92 ± 16%
229E E protein Inhibition (score) [10]: 1.4 score

N=C(N)NC(=O)/C=C/c1cccc(C(F)(F)F)c1 [3-(trifluoromethyl)cinnamoylguanidine]
SARS E protein Inhibition (score/# of times tested) [1]: 2.67/1 score
Bacterial assay rank order [2, 13]: 2
Bacterial assay rank order ([2]; Table 19b): 2
Vpu Bacterial score ([2]; Table 19b): 3.7
Vpu Inhibition (score/# of times tested) [2]: 3.7/2 score
inhibition at 2.5 µM [3]: 84%
Percent of Positive Control ([5]; Drug Conc. 0.625 μM): 38%
Percent of Positive Control ([5]; Drug Conc. 1.25 μM): 27%
Percent of Positive Control ([5]; Drug Conc. 2.5 μM): 25%
Percent of Positive Control ([5]; Drug Conc. 5 μM): 8%
Percent of Positive Control ([5]; Drug Conc. 10 μM): 11%
At least 1x log reduction seen in p24 assay? [5]: yes
Percent reduction in Plaque number/# experiments ([6]; 1 uM): 40/1%
Percent reduction in Plaque number/# experiments ([6]; 10 uM): 83/1%
Percent reduction in Plaque number/# experiments ([6]; 20 uM): 98/1%
EC50 [8]: 3 µM
229E E protein Inhibition (score) [10]: 2.3 score

N=C(N)NC(=O)Cc1ccc2ccccc2c1 [2-(2-napthyl)acetoylguanidine]
SARS E protein Inhibition (score/# of times tested) [1]: 0.71/1 score
Bacterial assay rank order [2, 13]: 11
Bacterial assay rank order ([2]; Table 19b): 11
Vpu Bacterial score ([2]; Table 19b): 1.2
Vpu Inhibition (score/# of times tested) [2]: 1.19/2 score
EC50 [4]: 120 µM
At least 1x log reduction seen in p24 assay? [5]: no
Percent reduction in Plaque number/# experiments ([6]; 1 uM): 23/1%
Percent reduction in Plaque number/# experiments ([6]; 10 uM): 20/2%
Percent reduction in Plaque number/# experiments ([6]; 20 uM): 52/1%
EC50 [8]: 99 µM
229E E protein Inhibition (score) [10]: 0.1 score

N=C(N)NC(=O)Cc1cccc2ccccc12 [2-(1-napthyl)acetoylguanidine]
SARS E protein Inhibition (score/# of times tested) [1]: 1.50/1 score
Vpu Inhibition (score/# of times tested) [2]: 1.56/2 score
Percent reduction in Plaque number/# experiments ([6]; 1 uM): 11/1%
Percent reduction in Plaque number/# experiments ([6]; 10 uM): 02/1%
inhibition at 20 µM [11]: -19%
229E E protein Inhibition (score) [10]: 0.8 score

NC(N)=NC(=O)/C=C/C=C/c1ccccc1 [(5-Phenyl-penta-2,4-dienoyl)guanidine]
SARS E protein Inhibition (score/# of times tested) [1]: 0.44/2 score
Bacterial assay rank order [2, 13]: 8
Bacterial assay rank order ([2]; Table 19b): 8
Vpu Bacterial score ([2]; Table 19b): 2.6
Vpu Inhibition (score/# of times tested) [2]: 2.56/2 score
inhibition at 2.5 µM [3]: 9%
At least 1x log reduction seen in p24 assay? [5]: no
Percent reduction in Plaque number/# experiments ([6]; 1 uM): 17/1%
Percent reduction in Plaque number/# experiments ([6]; 10 uM): 24/1%
Percent reduction in Plaque number/# experiments ([6]; 20 uM): 27/1%
EC50 [8]: 95 µM
229E E protein Inhibition (score) [10]: 1.8 score

Cc1cccc(/C=C/C(=O)NC(=N)N)c1 [3-methylcinnamoylguanidine]
SARS E protein Inhibition (score/# of times tested) [1]: 1.00/1 score
Bacterial assay rank order [2, 13]: 3
Bacterial assay rank order ([2]; Table 19b): 3
Vpu Bacterial score ([2]; Table 19b): 3.4
Vpu Inhibition (score/# of times tested) [2]: 3.4/2 score
inhibition at 2.5 µM [3]: 100%
EC50 [4]: 1.43 µM
At least 1x log reduction seen in p24 assay? [5]: yes
Percent reduction in Plaque number/# experiments ([6]; 1 uM): 39/1%
Percent reduction in Plaque number/# experiments ([6]; 10 uM): 88/1%
Percent reduction in Plaque number/# experiments ([6]; 20 uM): 90/1%
229E E protein Inhibition (score) [10]: 0.5 score

N=C(N)NC(=O)C1CC1c1ccccc1 (stereo not drawn) [(trans-2-Phenylcyclopropanecarbonyl)guanidine]
SARS E protein Inhibition (score/# of times tested) [1]: 1.34/3 score
Bacterial assay rank order [2, 13]: 12
Bacterial assay rank order ([2]; Table 19b): 12
Vpu Bacterial score ([2]; Table 19b): 0.4
Vpu Inhibition (score/# of times tested) [2]: 0.4/2 score
inhibition at 2.5 µM [3]: 71%
EC50 [4]: 17.2 µM
At least 1x log reduction seen in p24 assay? [5]: no
Percent reduction in Plaque number/# experiments ([6]; 1 uM): 31/2%
Percent reduction in Plaque number/# experiments ([6]; 10 uM): 64/2%
Percent reduction in Plaque number/# experiments ([6]; 20 uM): 77/2%
EC50 [8]: 109 µM
229E E protein Inhibition (score) [10]: 0.8 score

N=C(NC(=O)c1ccc2cc(O)ccc2c1)Nc1ccccc1 [N-(6-Hydroxy-2-napthoyl)-N′-phenylguanidine]
SARS E protein Inhibition (score/# of times tested) [1]: 1.35/3 score
Vpu Inhibition (score/# of times tested) [2]: 2.06/2 score
Percent reduction in Plaque number/# experiments ([6]; 10 uM): 39/1%
Percent reduction in Plaque number/# experiments ([6]; 20 uM): 43/1%
inhibition at 1 µM [11]: -5%

N=C(NC(=O)CCc1ccccc1)Nc1ccccc1 [N-(3-phenylpropanoyl)-N′-phenylguanidine]
SARS E protein Inhibition (score/# of times tested) [1]: 1.57/2 score
Bacterial assay rank order [2, 13]: 9
Bacterial assay rank order ([2]; Table 19b): 9
Vpu Bacterial score ([2]; Table 19b): 2.2
Vpu Inhibition (score/# of times tested) [2]: 2.21/3 score
EC50 [4]: 19 µM
At least 1x log reduction seen in p24 assay? [5]: no
Percent reduction in Plaque number/# experiments ([6]; 1 uM): 43/1%
Percent reduction in Plaque number/# experiments ([6]; 10 uM): 65/1%
Percent reduction in Plaque number/# experiments ([6]; 20 uM): 80/1%
EC50 [8]: 156 µM
229E E protein Inhibition (score) [10]: 0.1 score

CC(C)(C)c1ccccc1/C=C/C(=O)NC(=N)N [2-t-butylcinnamoylguanidine]
SARS E protein Inhibition (score/# of times tested) [1]: 1.86/1 score
Vpu Inhibition (score/# of times tested) [2]: 2.13/2 score
inhibition at 2.5 µM [3]: 4%
Percent reduction in Plaque number/# experiments ([6]; 1 uM): 37/1%
Percent reduction in Plaque number/# experiments ([6]; 10 uM): 98/2%
IC50 [12]: 1 µM
229E E protein Inhibition (score) [10]: 3.9 score

CCCCC/C=C/c1cccc(/C=C/C(=O)NC(=N)N)c1 [3-(trans-hept-1-en-1-yl)cinnamoylguanidine]
SARS E protein Inhibition (score/# of times tested) [1]: 1.71/1 score
Vpu Inhibition (score/# of times tested) [2]: 0.81/2 score
inhibition at 1 µM [11]: -6%
inhibition at 10 µM [11]: 23%

N=C(N)NC(=O)/C=C/c1cccc(Br)c1 [(3-Bromocinnamoyl)guanidine]
SARS E protein Inhibition (score/# of times tested) [1]: 3.15/27 score
Bacterial assay rank order [2, 13]: 1
Bacterial assay rank order ([2]; Table 19b): 1
Vpu Bacterial score ([2]; Table 19b): 4.3
Vpu Inhibition (score/# of times tested) [2]: 4.3/24 score
inhibition at 2.5 µM [3]: 100%
EC50 [4]: 11.2 µM
Percent of Positive Control ([5]; Drug Conc. 0.625 μM): 116%
Percent of Positive Control ([5]; Drug Conc. 1.25 μM): 59%
Percent of Positive Control ([5]; Drug Conc. 2.5 μM): 9%
Percent of Positive Control ([5]; Drug Conc. 5 μM): 1%
Percent of Positive Control ([5]; Drug Conc. 10 μM): 3%
At least 1x log reduction seen in p24 assay? [5]: yes
Percent reduction in Plaque number/# experiments ([6]; 1 uM): 39/3%
Percent reduction in Plaque number/# experiments ([6]; 10 uM): 90/3%
Percent reduction in Plaque number/# experiments ([6]; 20 uM): 95/2%
EC50 [8]: 3 µM
IC50 [12]: 10 µM
% Reduction of average current by 100 μM [9]: 87 ± 11%
229E E protein Inhibition (score) [10]: 1.7 score

N=C(N)NC(=O)/C=C/c1cccc(C2=CCCCC2)c1 [3-(cyclohex-1-en-1-yl)cinnamoylguanidine]
SARS E protein Inhibition (score/# of times tested) [1]: 3.75/1 score
Vpu Inhibition (score/# of times tested) [2]: 2.5/2 score
Percent reduction in Plaque number/# experiments ([6]; 10 uM): 2/2%
inhibition at 1 µM [11]: -19%
229E E protein Inhibition (score) [10]: 2.4 score

N=C(NC(=O)CCc1ccccc1)NC(=O)CCc1ccccc1 [N,N′-Bis(3-phenylpropanoyl)guanidine, N,N-Bis(3-phenylpropanoyl)guanidine]
Vpu Inhibition (score/# of times tested) [2]: 0.1/2 score
Percent reduction in Plaque number/# experiments ([6]; 10 uM): 30/4%
Percent reduction in Plaque number/# experiments ([6]; 20 uM): 41/3%
inhibition at 1 µM [11]: -8%
229E E protein Inhibition (score) [10]: 0.3 score

N=C(N)NC(=O)/C=C/c1ccco1 [(2-Furanacryloyl)guanidine]
SARS E protein Inhibition (score/# of times tested) [1]: 0.82/2 score
Vpu Inhibition (score/# of times tested) [2]: 0.94/2 score
Percent reduction in Plaque number/# experiments ([6]; 10 uM): 63/2%
Percent reduction in Plaque number/# experiments ([6]; 20 uM): 67/2%
inhibition at 1 µM [11]: -3%
